Test results taken from US11542249B2, “BTK inhibitor compounds” (Eli Lilly and Company, priority 2017, dated 2023).

Experiments:
[1] = tested on: activated B cells in human whole blood (CD69); test: Human Whole Blood CD69 in vitro assay (B cell activation, flow cytometry); type: cell-based; settings: IC50 value ± standard deviation, anti-human-IgD-Dextran stimulation, read-out: HWB CD69 Rel IC50
Protocol: Human Whole Blood CD69 in Vitro Assay:
The HWB CD69 assay measures activated B cells in human whole blood using a flow cytometer. Compounds are diluted and added to assay plates with a Labcyte ECHO® 555 liquid handler. Compounds are tested in 10 point dose response curves (20 μM-0.001 μM) in 96-well v-bottom plates with a maximum DMSO concentration of 0.2%. Fresh blood from individual healthy volunteer is mixed with HEPES (0.5 ml HEPES added per 10 ml blood) and 100 μl/well is added to compound plates. The plates are sealed and incubated in a 37° C. incubator for 3 h. Anti-human-IgD-Dextran is added to each well to give a final concentration of 100 ng/ml, mixed, and put back into the incubator. After 1 h, the cells are washed with cold FACS buffer and transferred to a deep well plate. The cells are incubated with anti-human CD69-PE (BIOLEGEND®, clone FN50) and anti-human CD19-APC (BIOLEGEND®, clone HIB19) antibodies on ice for 20 min. The cells are washed and incubated in eBioscience™ 1-step Fix/Lyse solution (10×) at RT to lyse the red blood cells and fix the other cells. The white cells are pelleted and washed in FACS buffer and then brought up in read buffer. The suspended cells are transferred to 96-well round bottom plates and read on an IntelliCyt iQue® Screener Plus flow cytometer. From the SSC (Side Scatter Channel) vs FSC (Forward Scatter Channel) graph, the lymphocytes are identified. Lymphocytes are identified with gated on positive CD19 marker for quantify CD69 (a marker of activated B lymphocytes) MFI (mean fluorescent intensity/cell). The signal ratio is converted to percent inhibition using the following equation: % Inhibition=100−[(Test Compound−Median Min)/(Median Max−Median Min)×100].
(§1) The following Table 1 and Table 2 describes the relative IC50 data vs. human BTK, human EGFR, and human whole blood CD69.

[2] = biological target: human EGFR (Homo sapiens (Human), UniProt P00533); test: EGFR LANTHASCREEN Eu Kinase Binding Assay; settings: IC50 value ± standard deviation; truncated GST-labeled EGFR, kinase tracer 199; read-out: hEGFR Rel IC50
Protocol: (§2) BTK and EGFR in Vitro Assays:
(§3) The BTK and EGFR biochemical assays utilize LANTHASCREEN® Eu Kinase Binding Assays from Thermo Fisher Scientific, measuring the binding of the kinase with a […] tracer. The assay buffer consists of 50 mM HEPES pH 7.5, 0.01% BRU™-35, 10 mM MgCl2, 1 mM EGTA, and 1 mM DTT. The test compounds are diluted and added to the assay plate with a Labcyte ECHO® 555 liquid handler. The compounds are tested in 10 point dose response curves (100 μM-0.005 μM) with a maximum DMSO concentration of 1%. The assays are performed in 20 μL in low-volume 384-well white proxiplates. For the BTK assay, the concentration of full-length His-labeled BTK in the assay is 5 nM, the Eu-anti-His antibody is 2 nM, and the kinase tracer 236 is 60 nM. For the EGFR assay, the concentration of truncated (amino acids 668-1210) GST-labeled EGFR is 5 nM, the Eu-anti-GST antibody is 2 nM, and the kinase tracer 199 is 10 nM. The components of the assay (compound, enzyme/antibody, tracer) are assembled and incubated for 30 min prior to being read on a Perkin-Elmer EnVision with excitation at 340 nm, tracer emission at 665 nm, and antibody emission at 615 nm. The signal ratio is converted to percent inhibition using the following equation: % Inhibition=100−[(Test Compound−Median Minimum)/(Median Maximum−Median Minimum)×100].

[3] = Rat Oral Bioavailability; type: in vivo, Sprague-Dawley rats; settings: Sprague-Dawley, plasma, PO 3 mg/kg vs IV 1 mg/kg, read-out: Rat Oral Bioavailability (% F)
Protocol: The test compound is administered to Sprague-Dawley rats intravenously (IV) at 1 mg/kg (using vehicles of either: 20% CAPTISOL® in 25 mM sodium phosphate buffer, pH2 quantum satis; or 25% DMA, 15% EtOH, 10% propylene glycol, 25% 2-pyrrolidone, and 25% purified water) and orally (PO) at 3 mg/kg (using a vehicle of 1% hydroxyethyl cellulose, 0.25% polysorbate 80, 0.05% Antifoam 1510-US, and purified water quantum satis). Serial blood samples are collected at 0.08, 0.25, 0.5, 1, 2, 4, 8, and 12 h post dose for IV bolus and at 0.25, 0.5, 1, 2, 4, 8, and 12 h post dose after oral administration. After treatment with an EDTA […], plasma is obtained by centrifugation and stored at −70° C. until analysis by LC-MS/MS. Test article concentration is determined in plasma and uploaded into the Watson LIMS™ system where noncompartmental analysis is used to calculate Area Under the Curve (AUC) for both IV and PO arms. Bioavailability (% F) is calculated via the following equation, %F=(AUCPO×DoseIV)/(AUCIV×DosePO)×100. Table 3 indicates the rat oral bioavailability of select BTK inhibitors.

[4] = biological target: human BTK (Homo sapiens (Human), UniProt Q06187); test: BTK LANTHASCREEN Eu Kinase Binding Assay; settings: IC50 value ± standard deviation; full-length His-labeled BTK, kinase tracer 236; read-out: hBTK Rel IC50
Protocol: as §2, §3, §1

Chain of human BTK (Q06187 whole entry): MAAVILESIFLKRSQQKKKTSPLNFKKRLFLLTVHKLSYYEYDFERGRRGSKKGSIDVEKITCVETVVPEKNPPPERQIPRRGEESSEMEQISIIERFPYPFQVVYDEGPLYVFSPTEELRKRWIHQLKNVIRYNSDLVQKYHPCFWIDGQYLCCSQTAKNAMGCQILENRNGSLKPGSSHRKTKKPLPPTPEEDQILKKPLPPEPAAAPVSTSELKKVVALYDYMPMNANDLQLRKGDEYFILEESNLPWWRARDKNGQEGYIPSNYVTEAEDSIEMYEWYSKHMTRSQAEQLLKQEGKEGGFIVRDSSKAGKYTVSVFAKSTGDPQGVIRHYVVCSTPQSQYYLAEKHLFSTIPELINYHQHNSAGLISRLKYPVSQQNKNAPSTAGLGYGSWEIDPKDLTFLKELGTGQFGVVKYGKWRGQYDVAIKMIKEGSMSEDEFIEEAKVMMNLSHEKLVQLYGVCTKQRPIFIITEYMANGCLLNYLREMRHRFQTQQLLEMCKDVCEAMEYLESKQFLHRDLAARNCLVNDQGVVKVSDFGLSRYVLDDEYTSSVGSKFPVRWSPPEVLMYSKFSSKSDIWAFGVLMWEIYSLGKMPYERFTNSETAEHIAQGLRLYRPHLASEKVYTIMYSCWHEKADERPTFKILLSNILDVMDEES
Chain of human EGFR (P00533 668-1210): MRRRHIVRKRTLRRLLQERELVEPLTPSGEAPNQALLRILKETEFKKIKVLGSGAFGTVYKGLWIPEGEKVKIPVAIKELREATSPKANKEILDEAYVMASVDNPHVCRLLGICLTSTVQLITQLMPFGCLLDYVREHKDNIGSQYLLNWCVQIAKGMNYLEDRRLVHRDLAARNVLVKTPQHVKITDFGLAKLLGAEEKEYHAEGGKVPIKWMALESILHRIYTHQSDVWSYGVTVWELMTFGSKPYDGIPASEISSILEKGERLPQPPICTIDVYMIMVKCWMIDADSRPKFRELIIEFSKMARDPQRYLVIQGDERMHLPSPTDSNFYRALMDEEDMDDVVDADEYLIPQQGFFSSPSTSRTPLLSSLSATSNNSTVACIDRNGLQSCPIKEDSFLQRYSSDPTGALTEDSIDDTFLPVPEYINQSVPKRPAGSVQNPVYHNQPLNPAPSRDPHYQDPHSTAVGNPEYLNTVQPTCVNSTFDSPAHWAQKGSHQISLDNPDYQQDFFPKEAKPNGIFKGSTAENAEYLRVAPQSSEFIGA

IC50 [1]	IC50 [2]	bioavailability [3]	IC50 [4]	SMILES
126 ± 29.7 nM	207 ± 31.9 nM	36.8%	6.11 nM	C=CC(=O)N1CCC(Nc2cncc(-c3cnc(Oc4cccc(Cl)c4)nc3)n2)CC1 [Example 44, 1-[4-[[6-[2-(3-chlorophenoxy)pyrimidin-5-yl]pyrazin-2-yl]amino]-1-piperidyl]prop-2-en-1-one]
490 ± 255 nM	4030 ± 1920 nM	–	30.2 ± 4.32 nM	C=CC(=O)N1CC(Nc2cncc(-c3cnc(Oc4cccc(C(F)(F)F)c4)nc3)n2)C1 [Example 26, 1-[3-[[6-[2-[3-(trifluoromethyl)phenoxy]pyrimidin-5-yl]pyrazin-2-yl]amino]azetidin-1-yl]prop-2-en-1-one]
242 ± 91.2 nM	644 ± 61.8 nM	–	18.1 ± 3.05 nM	C=CC(=O)N1CC(Nc2cncc(-c3cnc(Oc4cccc(F)c4)nc3)c2)C1 [Example 11, 1-[3-[[5-[2-(3-fluorophenoxy)pyrimidin-5-yl]-3-pyridyl]amino]azetidin-1-yl]prop-2-en-1-one]
180 ± 46 nM	129 ± 55.3 nM	–	9.73 ± 2.01 nM	C=CC(=O)N1CC(Nc2cncc(-c3cnc(Oc4cccc(Cl)c4)nc3)c2)C1 [Example 7, 1-[3-[[5-[2-(3-chlorophenoxy)pyrimidin-5-yl]-3-pyridyl]amino]azetidin-1-yl]prop-2-en-1-one]
148 ± 33.1 nM	523 ± 112 nM	79.2%	< 5 nM	C=CC(=O)N1CCC(Nc2cncc(-c3cnc(Nc4cccc(Cl)c4)nc3)c2)CC1 [Example 19, 1-[4-[[5-[2-(3-chloroanilino)pyrimidin-5-yl]-3-pyridyl]amino]-1-piperidyl]prop-2-en-1-one]
110 ± 79.4 nM	872 ± 456 nM	–	9.98 ± 4.3 nM	C=CC(=O)N1CC(Nc2cncc(-c3cnc(Oc4cccc(OC(F)F)c4)nc3)c2)C1 [Example 4, 1-[3-[[5-[2-[3-(difluoromethoxy)phenoxy]pyrimidin-5-yl]-3-pyridyl]amino]azetidin-1-yl]prop-2-en-1-one]
160 ± 38.2 nM	> 100000 nM	–	8.84 ± 1.21 nM	C=CC(=O)N1CCC(Nc2cncc(-c3cnc(Nc4cccc(C(F)(F)F)n4)nc3)c2)CC1 [Example 21, 1-[4-[[5-[2-[[6-(trifluoromethyl)-2-pyridyl]amino]pyrimidin-5-yl]-3-pyridyl]amino]-1-piperidyl]prop-2-en-1-one]
715 ± 93.5 nM	450 ± 53.2 nM	–	38.2 ± 16.9 nM	C=CC(=O)N1CC(Nc2cncc(-c3cnc(Oc4ccc(F)c(Cl)c4)nc3)c2)C1 [Example 13, 1-[3-[[5-[2-(3-chloro-4-fluoro-phenoxy)pyrimidin-5-yl]-3-pyridyl]amino]azetidin-1-yl]prop-2-en-1-one]
144 ± 53.4 nM	54.9 ± 15.4 nM	–	5.58 ± 0.182 nM	C=CC(=O)N1CC(Nc2cncc(-c3cnc(Nc4cccc(C)n4)nc3)n2)C1 [Example 40, 1-[3-[[6-[2-[(6-methyl-2-pyridyl)amino]pyrimidin-5-yl]pyrazin-2-yl]amino]azetidin-1-yl]prop-2-en-1-one]
200 ± 52.4 nM	509 ± 246 nM	–	6.95 ± 0.395 nM	C=CC(=O)N1CC(C)(Nc2cncc(-c3cnc(Oc4cccc(Cl)c4)nc3)c2)C1 [Example 12, 1-[3-[[5-[2-(3-chlorophenoxy)pyrimidin-5-yl]-3-pyridyl]amino]-3-methyl-azetidin-1-yl]prop-2-en-1-one]
466 ± 159 nM	52600 ± 28800 nM	–	43.8 ± 4.17 nM	CN(C)C/C=C/C(=O)N1CCC(Nc2cncc(-c3cnc(Oc4cccc(Cl)c4)nc3)n2)CC1 [Example 45, (E)-1-[4-[[6-[2-(3-chlorophenoxy)pyrimidin-5-yl]pyrazin-2-yl]amino]-1-piperidyl]-4-(dimethylamino)but-2-en-1-one]
742 ± 323 nM	1470 ± 209 nM	–	42.9 ± 5.09 nM	C=CC(=O)N1CC(Nc2cncc(-c3cnc(Oc4ccccc4)nc3)n2)C1 [Example 28, 1-[3-[[6-(2-phenoxypyrimidin-5-yl)pyrazin-2-yl]amino]azetidin-1-yl]prop-2-en-1-one]
157 ± 52.3 nM	6040 ± 2090 nM	–	< 5 nM	CN(C)C/C=C/C(=O)N1CCC(Nc2cncc(-c3cnc(Nc4cccc(Cl)c4)nc3)n2)CC1 [Example 46, (E)-1-[4-[[6-[2-(3-chloroanilino)pyrimidin-5-yl]pyrazin-2-yl]amino]-1-piperidyl]-4-(dimethylamino)but-2-en-1-one]
71 ± 12.8 nM	247 ± 99.3 nM	–	< 5 nM	C=CC(=O)N1CC(Nc2cncc(-c3cnc(Nc4cccc(C(F)(F)F)c4)nc3)c2)C1 [Example 18, 1-[3-[[5-[2-[3-(trifluoromethyl)anilino]pyrimidin-5-yl]-3-pyridyl]amino]azetidin-1-yl]prop-2-en-1-one]
239 ± 34.5 nM	724 ± 375 nM	–	23.1 ± 0.0341 nM	C=CC(=O)N1CC(Nc2cncc(-c3cnc(Oc4cccc(C(F)(F)F)c4)nc3)c2)C1 [Example 8, 1-[3-[[5-[2-[3-(trifluoromethyl)phenoxy]pyrimidin-5-yl]-3-pyridyl]amino]azetidin-1-yl]prop-2-en-1-one]
208 ± 132 nM	2220 ± 649 nM	–	16.9 ± 3.93 nM	C=CC(=O)N1CCC(Nc2cncc(-c3cnc(Nc4cccc(C)n4)nc3)c2)CC1 [Example 20, 1-[4-[[5-[2-[(6-methyl-2-pyridyl)amino]pyrimidin-5-yl]-3-pyridyl]amino]-1-piperidyl]prop-2-en-1-one]
299 ± 143 nM	242 ± 231 nM	–	17.8 ± 3.77 nM	C#Cc1cccc(Oc2ncc(-c3cncc(NC4CN(C(=O)C=C)C4)c3)cn2)c1 [Example 14, 1-[3-[[5-[2-(3-ethynylphenoxy)pyrimidin-5-yl]-3-pyridyl]amino]azetidin-1-yl]prop-2-en-1-one]
